Here are results for two compounds from patent publication US9901621B2, “Composition for treating hyperlipidemia comprising oxyntomodulin derivative” (HANMI PHARM. CO., LTD., priority 2012, dated 2018).

The subject of test [1] is high-fat diet-induced hyperlipidemia hamsters. In words: Blood lipid levels in high-fat diet hamsters, comparison with VICTOZA (Example 6). It counts as in vivo, Golden Syrian hamsters. The conditions noted are these: vs 35.5 nmol/kg VICTOZA s.c., 3.25 nmol/kg SEQ ID NO: 25-Fc or 8.96 nmol/kg SEQ ID NO: 23-Fc s.c. The procedure:
The effect of reducing lipid levels was compared between the oxyntomodulin derivative conjugate and known VICTOZA®.
As described in Example 5, hamsters were divided into a normal hamster group and hamster groups fed with a high-fat diet. The normal hamster group was administered subcutaneously with 5 ml/kg of DPBS once or more a week. The hamster groups fed with high-fat diet were divided into a group administered subcutaneously with 5 ml/kg of DPBS once or more a week, a group administered subcutaneously with 35.5 nmol/kg of VICTOZA® once or more a week, a group administered subcutaneously with 3.25 nmol/kg of the SEQ ID NO: 25-Fc conjugate, and a group administered subcutaneously with 8.96 nmol/kg of the SEQ ID NO:23-Fc conjugate, and the blood lipid levels of the groups were analyzed.

Test [2] has the same test system. Put plainly: Reduction in lipid levels in hyperlipidemia model hamsters (Example 5). The class given is in vivo, Golden Syrian hamsters. To be noted: vs high-fat diet group, s.c. once a week for 2 weeks, 3.25 nmol/kg SEQ ID NO: 25-Fc or 8.96 nmol/kg SEQ ID NO: 23-Fc. From the text:
8 week-old male hamsters (Golden Syrian hamsters, 120-130 g) were purchased from Vital River China. It is known that hamsters show blood lipid profiles similar to humans, unlike other rodents, and are sensitive to high-fat diets.
The animals were allowed access to a sterilized high-fat diet (Purina 5001 containing 11.5% maize oil, 11.5% coconut oil, 0.5% cholesterol, and 0.25% deoxycholate; Dyets, Bethlehem, Pa.) or a standard rodent diet (low fat, 2018; Harlan Teklad, Madison, Wis.). A normal diet group was allowed access to filtered and UV-sterilized tap water, and a high-fat diet group was allowed access to water containing 10% fructose. The animals were kept in a breeding chamber satisfying GLP standards under a 12-hr light/12-hr dark cycle (lighting: am 6 to pm 6), and all the experimental procedures were performed according to the standard guideline for animal experiments. Drug administration was started after 3 weeks of hyperlipidemia induction, and the animals were divided into four groups (n=6) as shown in Table 3 below.
Group 3 (hyperlipidemia-induced group+group administered with 3.25 nmol/kg of SEQ ID NO: 25-Fc conjugate) was fed with a high-fat diet to induce hyperlipidemia, and then administered with 3.25 nmol/kg of the SEQ ID NO: 25-Fc conjugate (prepared in Example 4) once a week at an injection dose of 5 ml/kg.
Group 4 (hyperlipidemia-induced group+group administered with 8.96 nmol/kg of SEQ ID NO: 23-Fc conjugate) was fed with a high-fat diet to induce hyperlipidemia, and then administered with 8.96 nmol/kg of the SEQ ID NO: 23-Fc conjugate (prepared in Example 3) once a week at an injection dose of 5 ml/kg.
Saline or the drug was administered into each group (n=6) for 2 weeks, and then the effects thereof on a reduction in lipid levels were analyzed.
Blood was collected from the hamsters which were administered or not administered with the long-acting oxyntomodulin derivative as described in Example 5-1, and the lipid levels of the blood were analyzed using HITACHI 7020.
FIGS. 1 to 5 show the change in blood triglyceride levels (FIG. 1), the change in blood total cholesterol levels (FIG. 2), the change in LDL-cholesterol levels (FIG. 3), blood HDL-cholesterol levels (FIG. 4), and the change in the blood HDL/LDL-cholesterol ratio (FIG. 5). The obtained results were statistically processed, and the mean values and the standard deviations of the mean values were calculated. In the verification of significance between the groups (n=6), data were statistically processed using Dunnett's test of one-way ANOVA, and a value of p<0.05 was considered statistically significant.

Test [3] addresses T1, human glucagon receptor (Homo sapiens, UniProt P47871).
T1 construct: Using a portion corresponding to the ORF (open reading frame) of cDNA; expressed in transfected cells; host or cells: CHO DG44
Put plainly: cAMP response in CHO cells expressing glucagon receptor (CHO/GCGR). It counts as cell-based. The procedure: The PCR product was cloned into the known animal cell expression vector x0GC/dhfr, thereby constructing the recombinant vector x0GC/GCGR.
The recombinant vector x0GC/GCGR was introduced into a CHO DG44 cell line, cultured in DMEM/F12 (10% FBS) medium, using lipofectamine (Invitrogene, USA), to obtain a transformant. The transformant was incubated in a selective medium containing 1 mg/mL G418 and 10 nM methotraxate, and monoclonal cell lines were selected therefrom.
(§1) The cultured cells were washed with KRB buffer, suspended in 40 ml of 1 mM IBMX-containing KRB buffer, and then allowed to stand at room temperature for 5 minutes. […] Then, 20 ml of cell lysis buffer was added to lyse the cells, and the concentration of cAMP in each of the cell lysates was measured using a cAMP assay kit (Molecular Device, USA).

The target of test [4] is T2, human GLP-1 receptor (Homo sapiens, UniProt P43220).
T2 construct: Using a portion corresponding to the ORF (open reading frame) of cDNA; expressed in transfected cells; host or cells: CHO DG44
Put plainly: cAMP response in CHO cells expressing GLP-1 receptor (CHO/GLP-1R). The class given is cell-based. The procedure:
The PCR product was cloned into the known animal cell expression vector x0GC/dhfr, thereby constructing the recombinant vector x0GC/GLP-1R.
The recombinant vector x0GC/GLP-1R was introduced into a CHO DG44 cell line, cultured in DMEM/F12 (10% FBS) medium, using lipofectamine (Invitrogene, USA), to obtain a transformant. The transformant was incubated in a selective medium containing 1 mg/mL G418 and 10 nM methotraxate, and monoclonal cell lines were selected therefrom.
as §1

Where a SMILES comes first, the peptide text is derived from it. [ ]: non-standard residue; d: D form. Aib = CC(C)(N)C(=O)O

In general, EC50 refers to the concentration at which the effect is half-maximal. High values mean weaker potency, low ones greater potency.

T2 sequence (P43220 24-463): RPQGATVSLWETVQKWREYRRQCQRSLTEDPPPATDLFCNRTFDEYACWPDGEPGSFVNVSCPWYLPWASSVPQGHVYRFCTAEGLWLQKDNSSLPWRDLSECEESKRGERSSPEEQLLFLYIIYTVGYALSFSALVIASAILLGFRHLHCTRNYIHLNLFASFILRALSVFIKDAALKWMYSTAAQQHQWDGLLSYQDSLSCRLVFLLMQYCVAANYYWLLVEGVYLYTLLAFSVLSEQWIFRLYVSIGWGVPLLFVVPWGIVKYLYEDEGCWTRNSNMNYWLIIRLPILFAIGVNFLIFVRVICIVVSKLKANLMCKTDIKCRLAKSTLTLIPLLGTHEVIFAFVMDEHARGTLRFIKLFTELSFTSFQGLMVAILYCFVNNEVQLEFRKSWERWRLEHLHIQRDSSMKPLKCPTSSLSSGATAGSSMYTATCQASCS
T1 sequence (P47871 26-477): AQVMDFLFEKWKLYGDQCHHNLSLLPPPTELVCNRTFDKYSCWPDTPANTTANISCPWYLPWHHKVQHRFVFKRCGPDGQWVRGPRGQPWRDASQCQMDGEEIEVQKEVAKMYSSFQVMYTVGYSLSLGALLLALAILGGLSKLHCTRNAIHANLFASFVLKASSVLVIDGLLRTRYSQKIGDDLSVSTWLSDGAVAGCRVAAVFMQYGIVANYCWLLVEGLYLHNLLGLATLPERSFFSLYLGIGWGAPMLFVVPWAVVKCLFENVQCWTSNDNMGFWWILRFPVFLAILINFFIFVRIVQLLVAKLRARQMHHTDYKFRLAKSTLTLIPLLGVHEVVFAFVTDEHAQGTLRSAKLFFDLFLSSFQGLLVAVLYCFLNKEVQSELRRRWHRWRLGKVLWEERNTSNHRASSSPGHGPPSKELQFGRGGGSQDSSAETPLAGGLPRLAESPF

For the compound “SEQ ID NO: 25-Fc conjugate: oxyntomodulin derivative of SEQ ID NO: 25 linked at cysteine 30 via MAL-10K-ALD PEG to immunoglobulin Fc (Example 4) (HXQGTFTSDYSKYLDEKRAKEFVQWLMNTC; PEG linker at Cys30 to immunoglobulin Fc; MOD_RES (2)..(2) Aib; (16)..(20) Ring formation between residues)”, in test [1] (FIG. 6), the “blood total cholesterol levels compared to VICTOZA” value is given as “decrease”. Moreover, in test [1] (FIG. 7), the “blood LDL-cholesterol level compared to VICTOZA” value was “decrease”. The “blood HDL-cholesterol levels compared to VICTOZA” value in test [1] (FIG. 8) is “significant increases”. Also, the “HDL/LDL-cholesterol ratio compared to VICTOZA” value in test [1] (FIG. 9) is “significant increases”. For the same compound, the “blood triglyceride levels compared to VICTOZA” value in test [1] (FIG. 10) is recorded as “decrease”. The blood triglyceride levels result in test [2] (FIG. 1) was “significantly decreased”. Besides, in test [2] (FIG. 2), the “blood total cholesterol levels” value is “significantly decreased”. Also, the “blood LDL-cholesterol levels” value in test [2] (FIG. 3) was “significantly decreased”. Further, the “blood HDL-cholesterol levels” value in test [2] (FIG. 4) is on record as “significant increase”. For the same compound, the “blood HDL/LDL-cholesterol ratio” value in test [2] (FIG. 5) is listed as “significant increase”.
Take `CSCC[C@H](NC(=O)[C@H](CC(C)C)NC(=O)[C@H](Cc1c[nH]c2ccccc12)NC(=O)[C@H](CS)NC(=O)[C@@H](NC(=O)[C@H](Cc1ccccc1)NC(=O)[C@H](CCC(=O)O)NC(=O)[C@H](CCCCN)NC(=O)[C@H](C)NC(=O)[C@H](CCCNC(=N)N)NC(=O)[C@H](CCCCN)NC(=O)[C@H](CCC(=O)O)NC(=O)[C@H](CC(=O)O)NC(=O)[C@H](CC(C)C)NC(=O)[C@H](Cc1ccc(O)cc1)NC(=O)[C@H](CCCCN)NC(=O)[C@H](CO)NC(=O)[C@H](Cc1ccc(O)cc1)NC(=O)[C@H](CC(=O)O)NC(=O)[C@H](CO)NC(=O)[C@@H](NC(=O)[C@H](Cc1ccccc1)NC(=O)[C@@H](NC(=O)CNC(=O)[C@H](CCC(N)=O)NC(=O)C(C)(C)NC(=O)[C@@H](N)Cc1c[nH]cn1)[C@@H](C)O)[C@@H](C)O)C(C)C)C(=O)N[C@@H](CC(N)=O)C(=O)N[C@H](C(=O)O)[C@@H](C)O` [SEQ ID NO: 23] (H-H[Aib]QGTFTSDYSKYLDEKRAKEFVCWLMNT-OH; C-terminus assumed): the 50% effective concentration (EC50) was 5.8 nM in test [3] and 2.46 nM in test [4].
